Series [1] relates to Hepatitis C virus. The series is described as follows: Antiviral activity against HCV assessed as reduction in viral replication by measuring monophosphate prodrug metabolite. In kind it is functional, organism-based, Hepacivirus hominis.
The subject of series [2] is Hepatitis C virus. Kind of series: Antiviral activity against HCV assessed as reduction in viral replication by measuring parent nucleoside compound. In kind it is functional, organism-based, Hepacivirus hominis.
Series [3] in a line: Prodrug conversion in cynomolgus monkey lung assessed as triphosphate metabolite formation at 30 mg/kg, po measured after 24 hrs. The conditions noted are these: in vivo. In kind it is ADME, organism-based, Macaca fascicularis.
Series [4] in a line: AUC (0 to infinity) in cynomolgus monkey at 30 mg/kg, po. The settings on record: in vivo. On the set-up: time infinity, dose 30 mg/kg, route po. In kind it is ADME, organism-based, Macaca fascicularis.
Series [5] can be described thus: Prodrug conversion in cynomolgus monkey assessed as AUC (0 to last) of parent nucleoside compound at 30 mg/kg, po. In kind it is ADME, organism-based, Macaca fascicularis. More on the design: time 0 - last, dose 30 mg/kg, route po. The conditions noted are these: in vivo.
A short description of series [6]: Volume of distribution at steady state in Beagle dog at 0.5 mg/kg, iv measured for 0.08 to 24 hrs post-dose. In kind it is ADME, organism-based, Canis lupus familiaris. The conditions noted are these: in vivo, time 0.08-24 hrs, read-out: Vdss.
The nature of series [7]: AUC (0 to infinity) in Beagle dog at 3 mg/kg, po via gavage measured for 0.08 to 24 hrs post-dose. More on the design: time lower 0.08 hrs, dose 3 mg/kg, time upper 24 hrs, route po. The settings on record: in vivo. In kind it is ADME, organism-based, Canis lupus familiaris.
Series [8] can be described thus: Oral bioavailability in Beagle dog at 3 mg/kg administered via gavage measured for 0.08 to 24 hrs post-dose. In kind it is ADME, organism-based, Canis lupus familiaris. The settings on record: in vivo, time 0.08-24 hrs.
Series [9] can be described thus: AUC (0 to infinity) in Beagle dog at 0.5 mg/kg, iv measured for 0.08 to 24 hrs post-dose. More on the design: dose 0.5 mg/kg, time upper 24 hrs, time lower 0.08 hrs, route iv. In kind it is ADME, organism-based, Canis lupus familiaris. The conditions noted are these: in vivo.
Series [10] in a line: Half life in Beagle dog at 0.5 mg/kg, iv measured for 0.08 to 24 hrs post-dose. In kind it is ADME, organism-based, Canis lupus familiaris. The settings on record: in vivo, time 0.08-24 hrs.
Series [11] in a line: AUC (0 to infinity) in overnight fasted dog at 100 mg/kg, po measured upto 24 hrs. The settings on record: in vivo. In kind it is ADME, organism-based, Canis lupus familiaris. On the set-up: dose 100 mg/kg, time < 24 hrs, route po.
Series [12] can be described thus: Prodrug conversion in overnight fasted dog assessed as AUC (0 to last) of parent nucleoside compound at 100 mg/kg, po measured upto 24 hrs. On the set-up: dose 100 mg/kg, time < 24 hrs, route po. In kind it is ADME, organism-based, Canis lupus familiaris. The conditions noted are these: in vivo.
Series [13] deals with Hepatitis C virus. The series is described as follows: Antiviral activity against HCV infected in human Huh-7 cells expressing Ces1 assessed as reduction in viral replication by measuring monophosphate prodrug metabolite. In kind it is functional, organism-based, Hepacivirus hominis.
Series [14] in a line: AUC (0 to infinity) in dog at 5 mg/kg, po via gavage measured for 0.25 to 24 hrs post-administration. The conditions noted are these: in vivo. In kind it is ADME, organism-based, Canis lupus familiaris. On the set-up: dose 5 mg/kg, time upper 24 hrs, time lower 0.25 hrs, route po.
Series [15] is described as follows: Prodrug conversion in dog assessed as AUC (0 to last) of parent nucleoside compound at 5 mg/kg, po via gavage measured for 0.25 to 24 hrs post-administration. In kind it is ADME, organism-based, Canis lupus familiaris. More on the design: time upper 24 hrs, time lower 0.25 hrs, dose 5 mg/kg, route po. The settings on record: in vivo.
The nature of series [16]: AUC (0 to infinity) in cynomolgus monkey at 5 mg/kg, po measured for 0.25 to 4 hrs post-administration. The conditions noted are these: in vivo. In kind it is ADME, organism-based, Macaca fascicularis. More on the design: time upper 4 hrs, dose 5 mg/kg, time lower 0.25 hrs, route po.
A short description of series [17]: Prodrug conversion in cynomolgus monkey assessed as AUC (0 to last) of parent nucleoside compound at 5 mg/kg, po measured for 0.25 to 4 hrs post-administration. In kind it is ADME, organism-based, Macaca fascicularis. On the set-up: time lower 0.25 hrs, dose 5 mg/kg, time upper 4 hrs, route po. The conditions noted are these: in vivo.
For series [18], the system named is SARS-CoV-2. The series is described as follows: Antiviral activity against SARS-CoV-2 infected in human PSC-derived lung epithelial cells assessed as reduction in viral replication. In kind it is functional, organism-based. The conditions noted are these: Severe acute respiratory syndrome coronavirus 2, Epithelial cell.
Series [19] relates to Ebolavirus. The series is described as follows: Antiviral activity against Ebola infected in human macrophages assessed as reduction in viral replication. In kind it is functional, organism-based. The conditions noted are these: Orthoebolavirus, Macrophage.
Series [20] has as its system Nipah virus. The series is described as follows: Antiviral activity against Nipah B2004 infected in human NCI-H358 cells assessed as reduction in viral replication incubated for 48 to 144 hrs by reporter virus assay. In kind it is functional, organism-based. The conditions noted are these: Henipavirus nipahense.
For series [21], the system named is SARS-CoV-2. Kind of series: Antiviral activity against SARS-CoV-2 infected in human Calu-3 cells assessed as reduction in viral replication at MOI of 0.01 measured after 72 hrs by qRT-PCR analysis. In kind it is functional, organism-based. The settings on record: Severe acute respiratory syndrome coronavirus 2, Calu-3, 72 h. (Real-time PCR tracks product formation cycle by cycle.)

In series [22] the test system is Nipah virus. The series is described as follows: Antiviral activity against Nipah M1999 infected in human HeLa cells assessed as reduction in viral replication incubated for 48 to 144 hrs by reporter virus assay. In kind it is functional, organism-based. The conditions noted are these: Henipavirus nipahense.
Series [23] concerns Measles morbillivirus. Kind of series: Antiviral activity against Measles Rec.rMVEZGFP(3) infected in human HeLa cells assessed as reduction in viral replication incubated for 48 to 144 hrs by fluorescence based assay. In kind it is functional, organism-based.
Series [24] deals with SARS-CoV-2. The series is described as follows: Antiviral activity against SARS-CoV-2 infected in human Calu-3 2B4 cells assessed as reduction in viral replication at MOI of 0.01 preincubated for 2 hrs followed by viral infection for 30 mins and subsequent virus removal and addition of medium containing compound measured after 72 hrs by RT-qPCR analysis. In kind it is functional, organism-based. The conditions noted are these: Severe acute respiratory syndrome coronavirus 2, Calu-3 2B4.

In series [25] the test system is SARS-CoV-2. The series is described as follows: Antiviral activity against SARS-CoV-2 infected in human A549 cells expressing hACE2 assessed as reduction in viral replication at MOI of 0.025 incubated for 48 hrs by luciferase based assay. In kind it is functional, organism-based. The settings on record: Severe acute respiratory syndrome coronavirus 2, A549, 48 h.

The subject of series [26] is Ebolavirus. Kind of series: Antiviral activity against Ebola infected in human HeLa cells assessed as reduction in viral replication. In kind it is functional, organism-based. The settings on record: Orthoebolavirus.
For series [27], the system named is Measles morbillivirus. Kind of series: Antiviral activity against Measles virus infected in HMVEC cells assessed as reduction in viral replication. In kind it is functional, organism-based.
In series [28] the test system is SARS-CoV-2. The series is described as follows: Antiviral activity against SARS-CoV-2 infected in African green monkey Vero E6 cells assessed as reduction in viral replication. In kind it is functional, organism-based. The conditions noted are these: Severe acute respiratory syndrome coronavirus 2, Vero C1008.
Series [29] has as its system SARS-CoV. Kind of series: Antiviral activity against SARS-CoV infected in HAE cells assessed as reduction in viral replication at MOI of 0.5 preincubated for 3 hrs followed by virus removal measured after 48 hrs by Hoechst 33258 staining based assay. In kind it is functional, organism-based. The settings on record: Severe acute respiratory syndrome-related coronavirus.

The test system of series [30] is Middle East respiratory syndrome-related coronavirus. Kind of series: Antiviral activity against MERS-CoV infected in HAE cells assessed as reduction in viral replication at MOI of 0.5 incubated for 3 hrs followed by virus removal measured after 48 hrs by Hoechst 33258 staining based assay. In kind it is functional, organism-based.
In series [31] the test system is SARS-CoV-2. Kind of series: Antiviral activity against SARS-CoV-2 infected in human Huh-7 cells assessed as reduction in virus-induced cytopathic effect at MOI of 0.0037 measured after 4 days by MTS assay. In kind it is functional, organism-based. The settings on record: Severe acute respiratory syndrome coronavirus 2, Huh-7, 96 h.
Series [32] concerns SARS-CoV-2. Kind of series: Antiviral activity against SARS-CoV-2 infected in human Caco-2 cells assessed as reduction in viral replication at MOI of 0.01 measured after 72 hrs by qRT-PCR analysis. In kind it is functional, organism-based. The conditions noted are these: Severe acute respiratory syndrome coronavirus 2, Caco-2, 72 h.
In series [33] the test system is Marburgvirus. The series is described as follows: Antiviral activity against MARV Rec. Bat371-GFP infected in human Huh-7 cells assessed as reduction in viral replication incubated for 48 to 144 hrs by fluorescence based assay. In kind it is functional, organism-based. The settings on record: Orthomarburgvirus.

In the case of `CNc1nc(N)nc2c1ncn2[C@@H]1O[C@H](COP(=O)(N[C@@H](C)C(=O)OC(C)C)Oc2ccccc2)[C@@H](O)[C@@]1(C)F` (stereo not given in full) [BEMNIFOSBUVIR], the EC50 worked out at 13 nM in series [1] and 69000 nM in series [2].

As for `CNc1nc(N)nc2c1ncn2[C@@H]1O[C@H](CO[P@@](=O)(N[C@@H](C)C(=O)OC(C)C)Oc2ccccc2)[C@@H](O)[C@@]1(C)F` [BEMNIFOSBUVIR], the Drug metabolism in [3] is 0.14 nmol/g. In series [4], this molecule showed a total exposure AUC(0-inf) of 0.44 µM·h. Further, in [5], the AUClast worked out at 1.56 µM·h.

On to `CCOC(=O)[C@H](C)N[P@@]1(=O)OC[C@H]2O[C@@H](n3cnc4c(OCC)nc(N)nc43)[C@](C)(F)[C@@H]2O1`, for which the Vd in series [6] was determined as 0.5 L/kg. Moreover, the total exposure AUC(0-inf) in series [7] amounted to 1.6 µM·h; in series [9], 0.61 µM·h. The molecule further gave a bioavailability in series [8] of 44%. Moreover, in [10], the half-life is 18 min.

`COC(=O)[C@H](C)NP(=O)(OC[C@@H]1C=C[C@H](n2cc(C)c(=O)[nH]c2=O)O1)Oc1ccc(Br)cc1` (stereo not given in full): in series [11], the area under the curve AUC(0-inf) is 23.1 µM·h. The AUClast in series [12] amounted to 262 µM·h.

As to `CC(C)OC(=O)[C@@H](C)N[P@@](=O)(OC[C@H]1O[C@@H](n2ccc(=O)[nH]c2=O)[C@](C)(Cl)[C@@H]1O)Oc1ccccc1` [UPRIFOSBUVIR], the EC50 in series [13] came to 320 nM.

With `CC(C)OC(=O)[C@H](C)N[P@](=O)(OC[C@H]1O[C@@](C#N)(c2cnc3c(N)ncnn23)[C@](C)(O)[C@@H]1OC(=O)C(C)C)Oc1ccccc1`, the figures for the 50% effective concentration (EC50) in series [1] and in series [2] were 460 nM and over 89000 nM, respectively.

Regarding `CC(C)OC(=O)[C@H](C)N[P@](=O)(OC[C@H]1O[C@@H](n2ccc(=O)[nH]c2=O)[C@@](C)(F)[C@@H]1O)Oc1ccccc1`, the AUC(0-inf) in series [14] was 0.78 µM·h; in [16], 0.16 µM·h. Moreover, the EC50 in [1] was 420 nM; in series [2], over 50000 nM. Moreover, the AUClast in series [15] is 27 µM·h; in [17] it was 0.12 µM·h.

Take `N#C[C@@]1(c2ccc3c(N)ncnn23)O[C@H](CO)[C@@H](O)[C@H]1O` [GS-441524]: the EC50 in [18] is 740 nM; in series [19] it was over 20000 nM; in series [20] it was 2460 nM; in [21], 250 nM; in [22], 2120 nM; in series [23] it was 1000 nM. For the same molecule, the EC50 in series [24] was 620 nM; in [25], 869 nM; in series [26] it was over 20000 nM; in series [27] it was 770 nM; in series [28], 470 nM; in series [29] it was 180 nM. In addition, the EC50 in series [30] was 860 nM; in series [31], 1100 nM; in series [32], 80 nM; in series [33], 1900 nM.

For the molecule `COc1nc(N)nc2c1ncn2[C@@H]1O[C@H](COP(=O)(N[C@@H](C)C(=O)OCC(C)(C)C)Oc2cccc3ccccc23)[C@@H](O)[C@@]1(C)O` (stereo not given in full) [BMS-986094], the EC50 in series [1] came to 35 nM; in series [2] it was 3500 nM. The AUC(0-inf) in series [4] was 0.026 µM·h.

What is called EC50 is the concentration needed to bring the measured effect to its halfway point. Usually AUC(0-inf) stands for the area under the concentration-time curve extrapolated to infinity. By bioavailability is commonly meant dose-corrected exposure relative to a reference, in per cent. The term half-life denotes the time in which the quantity being followed falls by half.

The record behind these values is ChEMBL document CHEMBL5107958, “Phosphoramidate Prodrugs Continue to Deliver, The Journey of Remdesivir (GS-5734) from RSV to SARS-CoV-2” (ACS Med Chem Lett, 2022).
